Laboratory results: paper PMC9223267, “Serine hydroxymethyltransferase as a potential target of antibacterial agents acting synergistically with one-carbon metabolism-related inhibitors” (Communications Biology, 2022)
Several values for one entry are separate records, joined by “and”; a condition that tells them apart may be missing. Equal values may be shown once. Entries after “also recorded” stand apart in the source; their conditions may differ. Read-outs that look alike come from different tables or passages of the source.

Key:
E. faecium [1] = assay: Bacterial viability assay (Microbial Viability Assay Kit-WST, OD450); format: cell-based, Enterococcus faecium; settings: for Relative bacterial viability: single values
Description: Living E. faecium were determined using the Microbial Viability Assay Kit-WST (DOJINDO, Tokyo, Japan). […] Positive control wells included bacteria seeded into MH broth without compounds, and the negative control wells contained MH broth only. […] Five microlitres of the colouring reagent were added to each well of the 96-well plate every 2 h after starting incubation with each compound.

S. aureus = assay: Antibacterial activity evaluation (turbidity, OD600); format: cell-based, Staphylococcus aureus (ATCC29213); settings: Staphylococcus aureus, S. aureus ATCC29213
Description: (§1) E. faecium and E. faecalis were diluted to turbidity equivalents that matched 1.0 McFarland (McF) standard in distilled water (S. aureus and E. coli were also diluted to 0.5 McF), and additionally diluted 1:200 in Mueller–Hinton (MH) broth. The designated concentrations of the tested compounds were prepared by ten-fold serial dilutions directly in 96-well microtiter plates (IWAKI, Shizuoka, Japan), as previously described. […] The other compounds were serially diluted from 20 μM downwards (final concentration, 10 μM). […] Positive control wells included bacteria without any compound, and the negative control wells only contained MH broth. […] The optical density at 600 nm (OD600) was measured using a GloMax microtiter plate reader (Promega, WI, USA), and the EC50 values of each test compound and standard error were calculated by Microsoft Excel function, AVERAGE and STDEV/SQRT.

E. coli = assay: as above; format: cell-based, Escherichia coli (ATCC25922); settings: Escherichia coli, E. coli ATCC25922
Description: as §1

efmSHMT [2] = molecular target: efmSHMT (Enterococcus faecium, UniProt I3U4H4, M1V); assay: biochemical; format: binding; settings: 5 μM efmSHMT; 10 mM Gly and 100 μM Ser; Cheng-Prusoff
efmSHMT (Enterococcus faecium, UniProt I3U4H4, M1V), sequence (I3U4H4 whole entry M1V): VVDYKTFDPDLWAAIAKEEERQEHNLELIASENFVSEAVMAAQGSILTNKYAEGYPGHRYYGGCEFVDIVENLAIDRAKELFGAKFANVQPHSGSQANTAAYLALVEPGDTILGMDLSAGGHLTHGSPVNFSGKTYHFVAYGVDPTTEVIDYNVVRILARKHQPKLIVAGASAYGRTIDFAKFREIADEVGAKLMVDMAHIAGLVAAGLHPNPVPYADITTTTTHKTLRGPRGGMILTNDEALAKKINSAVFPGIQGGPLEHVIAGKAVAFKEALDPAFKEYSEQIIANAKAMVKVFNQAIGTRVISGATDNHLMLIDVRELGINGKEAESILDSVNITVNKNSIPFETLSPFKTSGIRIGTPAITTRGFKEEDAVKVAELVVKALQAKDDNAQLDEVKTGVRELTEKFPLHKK
Description: After adding Me-THF, the efmSHMT solution was incubated for 30 min at room temperature. The optical density at 500 and 600 nm (OD500 and OD600) were then measured using a nanodrop spectrophotometer[24],[25]. OD600 was used as the background. After detection, each concentration of inhibitor was added to the efmSHMT solution and incubated for 30 min at room temperature. OD500 and OD600 were measured. The relative OD500 intensity was calculated as relative OD500 = (OD500 – OD600)/(MAXOD500 – OD600), where MAXOD500 is the average OD500 value in the presence of 1000, 2000 and 4000 μM Me-THF without inhibitors. […] Here, IC50 is the concentration of inhibitor added to the efmSHMT solution and [Me-THF] is the EC50 in the presence of the inhibitor concentration. [EC50 without inhibitor] is the EC50 of Me-THF in the absence of the inhibitor.

E. faecium [3] = assay: Antibacterial activity evaluation (turbidity, OD600); format: cell-based, Enterococcus faecium (JCM5804); settings: Enterococcus faecium
Description: as §1

Caski cells = assay: Cell cytotoxicity assay (Cell Counting Kit-8, 5 days); format: cell-based, human; settings: with each cell line (Caski, Hep-2 and Calu-3)
Description: After serial dilution, 100 μL of FBS-containing medium including the cells was added to each well of the plate. […] All CC50 determining assays were conducted in duplicate or triplicate[39],[40].

E. faecalis = assay: Antibacterial activity evaluation (turbidity, OD600); format: cell-based, Enterococcus faecalis (JCM7783); settings: Enterococcus faecalis, E. faecalis JCM7783
Description: as §1

E. faecium [4] = assay: Antibacterial assay with an excess concentration of biomolecules (Ser, Gly, inosine, dT, FA); format: cell-based, Enterococcus faecium (JCM5804)
Description: as §1
The ratio of the control EC50 (no competitors added) to the experimental EC50 (competitors added) was calculated for each test substance.

efmSHMT [5] = format: binding, Enterococcus faecium; settings: DSF; final drug concentration 50 μM
Description: Protein samples were prepared as 20 μL aliquots containing 0.1 mg/mL protein (efmSHMT/ecSHMT), 1 μL of the ligand in DMSO (final drug concentration, 50 μM) and 2% or 4% SYPRO Orange (Invitrogen, MA, USA). […] Melting points were evaluated as the half-point of the maximum intensity of each curve.

[6] = read-out: pEC50 ± S.E. (converted)
[7] = Enterococcus faecium, JCM5804, E. faecium JCM5804, 1 mM Inosine, read-out: EC50
[8] = Enterococcus faecium, JCM5804, E. faecium JCM5804, 1 mM Inosine, read-out: pEC50 ± S.E. (converted)
[9] = Enterococcus faecium, JCM5804, E. faecium JCM5804, 1 mM deoxythymidine, read-out: EC50
[10] = Enterococcus faecium, JCM5804, E. faecium JCM5804, 1 mM deoxythymidine, read-out: pEC50 ± S.E. (converted)
[11] = Enterococcus faecium, JCM5804, E. faecium JCM5804, 10 mM Glycine, read-out: EC50
[12] = Enterococcus faecium, JCM5804, E. faecium JCM5804, 10 mM Glycine, read-out: pEC50 ± S.E. (converted)
[13] = Enterococcus faecium, JCM5804, E. faecium JCM5804, 100 mM Serine, read-out: EC50
[14] = Enterococcus faecium, JCM5804, E. faecium JCM5804, 100 mM Serine, read-out: pEC50 ± S.E. (converted)
[15] = Enterococcus faecium, JCM5804, E. faecium JCM5804, 0.1 M folate, read-out: EC50
[16] = Enterococcus faecium, JCM5804, E. faecium JCM5804, 0.1 M folate, read-out: pEC50 ± S.E. (converted)

Compound | EC50 (S. aureus; read-out: EC50) [µM] | EC50 (S. aureus; [6]) [µM] | EC50 (E. coli; read-out: EC50) [µM] | EC50 (E. coli; [6]) [µM] | Ki (efmSHMT [2]) | selectivity index (S.I.): CC50 against each cell line / EC50 against E. faecium (Caski cells) | EC50 (E. faecalis; read-out: EC50) [µM] | EC50 (E. faecalis; [6]) [µM] | EC50 (E. faecium [4]; [7]) [µM] | EC50 (E. faecium [4]; [8]) [µM] | EC50 (E. faecium [4]; [9]) [µM] | EC50 (E. faecium [4]; [10]) [µM] | EC50 (E. faecium [4]; [11]) [µM] | EC50 (E. faecium [4]; [12]) [µM] | EC50 (E. faecium [4]; [13]) [µM] | EC50 (E. faecium [4]; [14]) [µM] | EC50 (E. faecium [4]; [15]) [µM] | EC50 (E. faecium [4]; [16]) [µM] | ΔTm (thermal stability of efmSHMT) (efmSHMT [5]) | other results
CN(Cc1cnc2nc(N)nc(N)c2n1)c1ccc(C(=O)N[C@@H](CCC(=O)O)C(=O)O)cc1 [MTX, methotrexate] | > 100 | > 100 | > 100 | > 100 | did not change the OD500; also recorded: did not bind | less selective than (+)-SHIN-1, TMP and PMX | 14 | 15.8 | 0.0024 | 0.00251 | > 100 | > 100 | 0.0028 | 0.00251 | 0.0026 | 0.00251 | 8.5 | 7.94 | did not stabilise efmSHMT significantly | Relative bacterial viability (E. faecium [1]; 2 nM, 0 hours): 0.02233 and 0.0177 and 0.02678 and 0.02266 and 0.01761 and 0.017 and 0.0195 and 0.01799; Relative bacterial viability (E. faecium [1]; 2 nM, 2 hours): 0.03007 and 0.03198 and 0.04012 and 0.03501 and 0.02569 and 0.02735 and 0.02947 and 0.02784; Relative bacterial viability (E. faecium [1]; 2 nM, 6 hours): 0.8015 and 0.7552 and 0.8948 and 0.8943 and 0.5687 and 0.5754 and 0.5661 and 0.5425; Relative bacterial viability (E. faecium [1]; 2 nM, 8 hours): 0.6487 and 0.7535 and 0.8184 and 0.7635 and 0.7144 and 0.6621 and 0.6673 and 0.7812; Relative bacterial viability (E. faecium [1]; 2 nM, 10 hours): 0.7053 and 0.6673 and 0.7036 and 0.6902; Relative bacterial viability (E. faecium [1]; 2 nM, 12 hours): 0.8527 and 0.9211 and 0.863 and 0.9139 and 0.786 and 0.828 and 0.8102 and 0.8671; Relative bacterial viability (E. faecium [1]; 20 nM, 0 hours): 0.02944 and 0.02382 and 0.02242 and 0.01876 and 0.02362 and 0.02115 and 0.02309 and 0.02203; Relative bacterial viability (E. faecium [1]; 20 nM, 2 hours): 0.04282 and 0.03899 and 0.03091 and 0.03386 and 0.03007 and 0.02907 and 0.03321 and 0.0351; Relative bacterial viability (E. faecium [1]; 20 nM, 4 hours): 0.09761 and 0.08481 and 0.06333 and 0.08156 and 0.05837 and 0.05915 and 0.09197 and 0.0766; Relative bacterial viability (E. faecium [1]; 20 nM, 6 hours): 0.09779 and 0.1224 and 0.09629 and 0.09367 and 0.1125 and 0.1318 and 0.1324 and 0.1243; Relative bacterial viability (E. faecium [1]; 20 nM, 8 hours): 0.09766 and 0.1007 and 0.1109 and 0.1082 and 0.07161 and 0.0792 and 0.1047 and 0.1064; Relative bacterial viability (E. faecium [1]; 20 nM, 10 hours): 0.1166 and 0.1064 and 0.08667 and 0.1003 and 0.08673 and 0.1012 and 0.1144 and 0.09737; Relative bacterial viability (E. faecium [1]; 20 nM, 12 hours): 0.09054 and 0.1107 and 0.09534 and 0.1014 and 0.09177 and 0.09711 and 0.09672 and 0.1035; EC50 (E. faecium [1]; Enterococcus faecium, relative bacterial viability after 14 h incubation): 0.0084 µM; EC50 (E. faecium [3]; JCM5804, E. faecium JCM5804, read-out: EC50): 0.0036 µM; EC50 (E. faecium [3]; JCM5804, E. faecium JCM5804, read-out: pEC50 ± S.E. (converted)): 0.00398 µM
Cc1n[nH]c2c1C(c1cc(N3CCCC3)cc(C(F)(F)F)c1)(C(C)C)C(C#N)=C(N)O2 (centres unmarked) [SHMT-IN-2] | ≥ 100 | ≥ 100 | > 100 | > 100 | did not change the OD500; also recorded: did not bind | less selective than (+)-SHIN-1, TMP and PMX | > 100 | > 100 | 3.1 | 3.16 | 2.9 | 3.16 | 3 | 3.16 | 4 | 3.98 | 2.9 | 3.16 | did not stabilise efmSHMT significantly | Relative bacterial viability (E. faecium [1]; 40 μM, 0 hours): 0.01862 and 0.0174 and 0.0205 and 0.01931 and 0.02646 and 0.02349 and 0.02966 and 0.03101; Relative bacterial viability (E. faecium [1]; 40 μM, 2 hours): 0.03093 and 0.0302 and 0.02505 and 0.02814 and 0.02877 and 0.02998 and 0.036 and 0.03921; Relative bacterial viability (E. faecium [1]; 40 μM, 6 hours): 0.3579 and 0.3453 and 0.3941 and 0.3482 and 0.392 and 0.3797 and 0.4394 and 0.4307; Relative bacterial viability (E. faecium [1]; 40 μM, 8 hours): 0.4949 and 0.5317 and 0.4381 and 0.3998 and 0.3519 and 0.3235 and 0.4823 and 0.3754; Relative bacterial viability (E. faecium [1]; 40 μM, 10 hours): 0.5237 and 0.542 and 0.4699 and 0.39 and 0.5132 and 0.4488 and 0.4691 and 0.4904; Relative bacterial viability (E. faecium [1]; 40 μM, 12 hours): 0.55 and 0.5489 and 0.5001 and 0.5313 and 0.5571 and 0.5294 and 0.6254 and 0.5482; Relative bacterial viability (E. faecium [1]; 80 μM, 0 hours): 0.02012 and 0.02269 and 0.02791 and 0.02552 and 0.02349 and 0.02305 and 0.03984 and 0.03245; Relative bacterial viability (E. faecium [1]; 80 μM, 2 hours): 0.03305 and 0.03431 and 0.03897 and 0.0377 and 0.0302 and 0.03755 and 0.04307 and 0.03606; Relative bacterial viability (E. faecium [1]; 80 μM, 4 hours): 0.03849 and 0.03773 and 0.03537 and 0.04204 and 0.0354 and 0.0391 and 0.04337 and 0.03653; Relative bacterial viability (E. faecium [1]; 80 μM, 6 hours): 0.04463 and 0.04595 and 0.05326 and 0.05339 and 0.04373 and 0.04075 and 0.04467 and 0.04119; Relative bacterial viability (E. faecium [1]; 80 μM, 8 hours): 0.04711 and 0.04935 and 0.05233 and 0.0524 and 0.04018 and 0.04838 and 0.04621 and 0.04757; Relative bacterial viability (E. faecium [1]; 80 μM, 10 hours): 0.04986 and 0.05353 and 0.04783 and 0.04892; Relative bacterial viability (E. faecium [1]; 80 μM, 12 hours): 0.04784 and 0.03996 and 0.04751 and 0.04436 and 0.04726 and 0.03481 and 0.04716 and 0.0494; EC50 (bacterial viability) (E. faecium [1]; relative bacterial viability after 14 h incubation): weaker activity than the turbidity detection result; EC50 (E. faecium [3]; E. faecium JCM5804, read-out: EC50): 2.9 µM; EC50 (E. faecium [3]; E. faecium JCM5804, read-out: pEC50 ± S.E. (converted)): 3.16 µM; EC50 (E. faecium [4]; E. faecium JCM5804, 0.1 M folate): independent of FA
